Measured values published in ChEMBL document CHEMBL3045157, “Synthesis and evaluation of in vitro antitubercular activity and antimicrobial activity of some novel 4H-chromeno[2,3-d]pyrimidine via 2-amino-4-phenyl-4H-chromene-3-carbonitriles” (2011).
In brackets after ≈: the same amount, converted by molar mass.

What was measured:
Type in all cases: functional
Aspergillus niger = assay: Antifungal activity against Aspergillus niger MTCC 282 after 24 hr by serial dilution method
Staphylococcus aureus = assay: Antibacterial activity against Staphylococcus aureus ATCC 25923 after 24 hr by serial dilution method; settings: ATCC 25923, 24 h
Streptococcus pyogenes = assay: Antibacterial activity against Streptococcus pyogenes MTCC 443 after 24 hr by serial dilution method; settings: MTCC 443, 24 h
Pseudomonas aeruginosa = assay: Antibacterial activity against Pseudomonas aeruginosa MTCC 441 after 24 hr by serial dilution method; settings: MTCC 441, 24 h
Escherichia coli = assay: Antibacterial activity against Escherichia coli ATCC 25922 after 24 hr by serial dilution method; settings: ATCC 25922, 24 h
[1] = test system: Mycobacterium tuberculosis; assay: Antitubercular activity against Mycobacterium tuberculosis H37Rv by agar microdilution method

Molecule	MIC (Aspergillus niger; MTCC 282, 24 h)	MIC (Staphylococcus aureus)	MIC (Streptococcus pyogenes)	MIC (Pseudomonas aeruginosa)	MIC (Escherichia coli)	MIC [1]	MIC (Aspergillus niger)
Nc1nc(=S)[nH]c2c1C(c1ccccc1)c1ccccc1O2 (stereo not given)	125 µg/mL (≈ 407 µM)	250 µg/mL (≈ 813 µM)	250 µg/mL (≈ 813 µM)	125 µg/mL (≈ 407 µM)	125 µg/mL (≈ 407 µM)	500 µg/mL (≈ 1630 µM)	–
CC1(C)S[C@@H]2[C@H](NC(=O)[C@H](N)c3ccccc3)C(=O)N2[C@H]1C(=O)O [AMPICILLIN]	–	100 µg/mL (≈ 286 µM)	250 µg/mL (≈ 715 µM)	100 µg/mL (≈ 286 µM)	100 µg/mL (≈ 286 µM)	–	–
Nc1nc(=O)[nH]c2c1C(c1ccccc1)c1ccc3cccnc3c1O2 (stereo not given)	250 µg/mL (≈ 730 µM)	125 µg/mL (≈ 365 µM)	125 µg/mL (≈ 365 µM)	500 µg/mL (≈ 1460 µM)	500 µg/mL (≈ 1460 µM)	125 µg/mL (≈ 365 µM)	–
Nc1nc(=S)[nH]c2c1C(c1ccccc1)c1ccc3cccnc3c1O2 (stereo not given)	500 µg/mL (≈ 1390 µM)	125 µg/mL (≈ 349 µM)	250 µg/mL (≈ 697 µM)	62.5 µg/mL (≈ 174 µM)	62.5 µg/mL (≈ 174 µM)	500 µg/mL (≈ 1390 µM)	–
Nc1nc(=O)[nH]c2c1C(c1ccccc1)c1c(ccc3ccccc13)O2 (stereo not given)	250 µg/mL (≈ 732 µM)	62.5 µg/mL (≈ 183 µM)	62.5 µg/mL (≈ 183 µM)	500 µg/mL (≈ 1460 µM)	250 µg/mL (≈ 732 µM)	250 µg/mL (≈ 732 µM)	–
O=c1[nH]cnc2c1C(c1ccccc1)c1c(ccc3ccccc13)O2 (stereo not given)	500 µg/mL (≈ 1530 µM)	125 µg/mL (≈ 383 µM)	125 µg/mL (≈ 383 µM)	125 µg/mL (≈ 383 µM)	125 µg/mL (≈ 383 µM)	125 µg/mL (≈ 383 µM)	–
Nc1nc(=O)[nH]c2c1C(c1ccccc1)c1ccccc1O2 (stereo not given)	500 µg/mL (≈ 1720 µM)	125 µg/mL (≈ 429 µM)	125 µg/mL (≈ 429 µM)	62.5 µg/mL (≈ 215 µM)	62.5 µg/mL (≈ 215 µM)	500 µg/mL (≈ 1720 µM)	–
O=c1[nH]cnc2c1C(c1ccccc1)c1ccccc1O2 (stereo not given)	500 µg/mL (≈ 1810 µM)	250 µg/mL (≈ 905 µM)	500 µg/mL (≈ 1810 µM)	250 µg/mL (≈ 905 µM)	250 µg/mL (≈ 905 µM)	500 µg/mL (≈ 1810 µM)	–
O=c1[nH]cnc2c1C(c1ccccc1)c1ccc3ccccc3c1O2 (stereo not given)	1000 µg/mL (≈ 3060 µM)	62.5 µg/mL (≈ 192 µM)	62.5 µg/mL (≈ 192 µM)	250 µg/mL (≈ 766 µM)	125 µg/mL (≈ 383 µM)	125 µg/mL (≈ 383 µM)	–
S=c1[nH]c2c(c(=S)[nH]1)C(c1ccccc1)c1ccc3cccnc3c1O2 (stereo not given)	500 µg/mL (≈ 1330 µM)	62.5 µg/mL (≈ 166 µM)	62.5 µg/mL (≈ 166 µM)	125 µg/mL (≈ 333 µM)	125 µg/mL (≈ 333 µM)	200 µg/mL (≈ 533 µM)	–
CO[C@H]1/C=C/O[C@@]2(C)Oc3c(C)c(O)c4c(O)c(c(/C=N/N5CCN(C)CC5)c(O)c4c3C2=O)NC(=O)/C(C)=C\C=C\[C@H](C)[C@H](O)[C@@H](C)[C@@H](O)[C@@H](C)[C@H](OC(C)=O)[C@@H]1C [RIFAMPIN]	–	–	–	–	–	40 µg/mL (≈ 48.6 µM)	–
Nc1nc(=S)[nH]c2c1C(c1ccccc1)c1ccc(O)cc1O2 (stereo not given)	125 µg/mL (≈ 387 µM)	500 µg/mL (≈ 1550 µM)	250 µg/mL (≈ 773 µM)	125 µg/mL (≈ 387 µM)	250 µg/mL (≈ 773 µM)	500 µg/mL (≈ 1550 µM)	–
COC1=CC(=O)C[C@@H](C)[C@]12Oc1c(Cl)c(OC)cc(OC)c1C2=O [GRISEOFULVIN]	100 µg/mL (≈ 283 µM)	–	–	–	–	–	–
O=c1[nH]cnc2c1C(c1ccccc1)c1ccc3cccnc3c1O2 (stereo not given)	500 µg/mL (≈ 1530 µM)	125 µg/mL (≈ 382 µM)	250 µg/mL (≈ 764 µM)	125 µg/mL (≈ 382 µM)	250 µg/mL (≈ 764 µM)	500 µg/mL (≈ 1530 µM)	–
Nc1nc(=S)[nH]c2c1C(c1ccccc1)c1c(ccc3ccccc13)O2 (stereo not given)	1000 µg/mL (≈ 2800 µM)	250 µg/mL (≈ 699 µM)	500 µg/mL (≈ 1400 µM)	500 µg/mL (≈ 1400 µM)	500 µg/mL (≈ 1400 µM)	1000 µg/mL (≈ 2800 µM)	–
S=c1[nH]c2c(c(=S)[nH]1)C(c1ccccc1)c1ccc3ccccc3c1O2 (stereo not given)	500 µg/mL (≈ 1340 µM)	125 µg/mL (≈ 334 µM)	250 µg/mL (≈ 668 µM)	250 µg/mL (≈ 668 µM)	250 µg/mL (≈ 668 µM)	500 µg/mL (≈ 1340 µM)	–
Nc1nc(=O)[nH]c2c1C(c1ccccc1)c1ccc(O)cc1O2 (stereo not given)	250 µg/mL (≈ 814 µM)	125 µg/mL (≈ 407 µM)	250 µg/mL (≈ 814 µM)	125 µg/mL (≈ 407 µM)	250 µg/mL (≈ 814 µM)	125 µg/mL (≈ 407 µM)	–
Oc1ccc2c(c1)Oc1[nH]c(=S)[nH]c(=S)c1C2c1ccccc1 (stereo not given)	1000 µg/mL (≈ 2940 µM)	62.5 µg/mL (≈ 184 µM)	62.5 µg/mL (≈ 184 µM)	250 µg/mL (≈ 734 µM)	125 µg/mL (≈ 367 µM)	200 µg/mL (≈ 587 µM)	–
NYSTATIN	–	–	–	–	–	–	100 µg/mL
S=c1[nH]c2c(c(=S)[nH]1)C(c1ccccc1)c1c(ccc3ccccc13)O2 (stereo not given)	500 µg/mL (≈ 1340 µM)	125 µg/mL (≈ 334 µM)	250 µg/mL (≈ 668 µM)	125 µg/mL (≈ 334 µM)	250 µg/mL (≈ 668 µM)	100 µg/mL (≈ 267 µM)	–
Nc1nc(=O)[nH]c2c1C(c1ccccc1)c1ccc3ccccc3c1O2 (stereo not given)	500 µg/mL (≈ 1460 µM)	125 µg/mL (≈ 366 µM)	125 µg/mL (≈ 366 µM)	250 µg/mL (≈ 732 µM)	500 µg/mL (≈ 1460 µM)	1000 µg/mL (≈ 2930 µM)	–
Nc1nc(=S)[nH]c2c1C(c1ccccc1)c1ccc3ccccc3c1O2 (stereo not given)	1000 µg/mL (≈ 2800 µM)	500 µg/mL (≈ 1400 µM)	500 µg/mL (≈ 1400 µM)	125 µg/mL (≈ 350 µM)	500 µg/mL (≈ 1400 µM)	1000 µg/mL (≈ 2800 µM)	–
O=C(O)c1cn(C2CC2)c2cc(N3CCNCC3)c(F)cc2c1=O [CIPROFLOXACIN]	–	50 µg/mL (≈ 151 µM)	50 µg/mL (≈ 151 µM)	–	25 µg/mL (≈ 75.4 µM)	–	–
S=c1[nH]c2c(c(=S)[nH]1)C(c1ccccc1)c1ccccc1O2 (stereo not given)	1000 µg/mL (≈ 3080 µM)	500 µg/mL (≈ 1540 µM)	500 µg/mL (≈ 1540 µM)	250 µg/mL (≈ 771 µM)	250 µg/mL (≈ 771 µM)	500 µg/mL (≈ 1540 µM)	–
O=c1[nH]cnc2c1C(c1ccccc1)c1ccc(O)cc1O2 (stereo not given)	1000 µg/mL (≈ 3420 µM)	500 µg/mL (≈ 1710 µM)	500 µg/mL (≈ 1710 µM)	250 µg/mL (≈ 855 µM)	62.5 µg/mL (≈ 214 µM)	62.5 µg/mL (≈ 214 µM)	–
